Results as given in patent US7276631B2, “Cyclopentylamine and cyclohexylamine derivatives as NK-1/SSRI antagonists” (Bristol-Myers Squibb Company, priority 2004, dated 2007).

How the values were obtained:
[1] = biological target: T1, neurokinin-1 (NK-1) receptor (Homo sapiens, UniProt P25103); assay: NK-1 binding (competition with [125I] Substance P, U373 cell membranes); details: [125I] Substance P displacement
T1 construct: a human glioblastoma-astrocytoma cell line that endogenously express the neurokinin-1 (NK-1) receptor; endogenous in cells; host or cells: U373 human glioblastoma-astrocytoma cells (membranes)
Procedure: U373 cells, a human glioblastoma-astrocytoma cell line that endogenously express the neurokinin-1 (NK-1) receptor, were grown in a monolayer culture at 37° C. in 5% CO2 and fed with Minimum Essential Medium (MEM) supplemented with 10% fetal bovine serum. Membranes were prepared as follows: Cells were washed twice with ice-cold phosphate-buffered saline (pH 7.4) and then incubated for 5 to 10 minutes with ice-cold 10 mM Tris buffer (pH 7.4) containing 5 mM EDTA. Cells were removed from plates, homogenized, and centrifuged at 32,000×g for 20 minutes. The resulting supernatant was discarded, and the pellet resuspended by homogenization in 50 mM Tris buffer (pH 7.4) containing 1 mM EDTA and centrifuged at 32,000×g for 20 minutes. The resulting supernatant was discarded, and the pellet resuspended by homogenization in NK-1 binding assay buffer (50 mM Tris-HCL (pH 7.4), 3 mM MnCl2, 200 μg/ml BSA, 5 μg/ml chymostatin, 40 μg/ml bacitracin and 4 μg/ml leupeptin).
On the day of an experiment the membrane preparation was thawed, homogenized and diluted with NK-1 binding assay buffer to the appropriate concentration. Competition binding assays were performed in 96 well plate format by incubating membranes (5-10 ug/well) with Bolton Hunter labeled [^125I] Substance P, at a concentration of […], and concentrations of drugs ranging from 10000 to 0.01 nM. Samples were incubated for 30 min at 20° C. then filtered through GF/B glass fiber filters (pretreated with 1% polyethyleneimine and 0.3% Triton X-100) using a Brandel cell harvester. The filters were then washed with 10 ml ice cold 50 mM Tris-HCL (pH 7.4) containing 3 mM MgCl2. Non-specific was defined in the presence of 2 μM L-733,060 (a non-peptide NK-1 antagonist). Amount of radioligand bound in the presence and absence of competitor was analyzed by plotting (−)log drug concentration versus the amount of radioligand specifically bound. The midpoint of the displacement curve (IC50, nM), signifies the potency. Ki values were calculated using the method of Cheng and Prusoff [Cheng, Y.-C. and Prusoff, W. H., Biochemical Pharmacology, Vol. 22, pp. 3099-3108, Pergamon Press (1973)].

[2] = biological target: T2, human serotonin transporters (Homo sapiens, UniProt P31645); assay: Serotonin transporter binding assay ([3H]-citalopram, HEK-hSERT cell membranes); details: [3H]-citalopram displacement, read-out: SERT IC50
T2 construct: expressed in transfected cells; host or cells: HEK-293 cells stably expressing hSERT (membranes)
Procedure: HEK-293 cells that stably express human serotonin transporters (HEK-hSERT cells) were grown at 37° C. in 5% CO2 as a monolayer in medium consisting of EMEM supplemented with 10% fetal bovine serum and G418 sulfate (500 μg/ml). To prepare membranes for radioligand binding experiments, cells were rinsed twice with phosphate-buffered saline (138 mM NaCl, 4.1 mM KCl, 5.1 mM Na2PO4, 1.5 mM […], 11.1 mM glucose, pH 7.4). Cells were transferred from plates to polypropylene tubes (16×100 mm), centrifuged at 1,200×g for 5 min and were frozen at −80° C. until assay. Following centrifugation, pellets were resuspended by homogenization in buffer consisting of 50 mM Tris (pH 7.7 at 25° C.), 120 mM NaCl and 5 mM KCl and then centrifuged at 32,000×g for 10 min. Following centrifugation, supernatants were discarded and pellets were resuspended in buffer consisting of 50 mM Tris (pH 7.4 at 25° C.), 150 mM NaCl and 5 mM KCl. Membrane homogenates (200 μl/plate) were incubated with 1 nM [^3H]-citalopram (specific activity=85 Ci/mmol) and increasing concentrations of test compounds for 1 hr at 25° C. in a total volume of 250 μl. The assay buffer consisted of 50 mM Tris (pH 7.4 at 25° C.), 120 mM NaCl and 5 mM KCl (pH 7.4 with conc. HCl). Plates were incubated for 1 hr at 25° C., then filtered through 0.5% PEI treated Whatman GF/B filters using a Brandel cell harvester. Filters were washed three times with 3 ml of ice-cold tris wash buffer. Non-specific binding was defined with 10 μM fluoxetine. Amount of radioligand bound in the presence and absence of competitor was analyzed by plotting (−)log drug concentration versus the amount of radioligand specifically bound. The midpoint of the displacement curve (IC50, nM), signifies the potency. Ki values were calculated using the method of Cheng and Prusoff [Cheng, Y.-C. and Prusoff, W. H., Biochemical Pharmacology, Vol. 22, pp. 3099-3108, Pergamon Press (1973)].

T2 sequence (P31645 whole entry): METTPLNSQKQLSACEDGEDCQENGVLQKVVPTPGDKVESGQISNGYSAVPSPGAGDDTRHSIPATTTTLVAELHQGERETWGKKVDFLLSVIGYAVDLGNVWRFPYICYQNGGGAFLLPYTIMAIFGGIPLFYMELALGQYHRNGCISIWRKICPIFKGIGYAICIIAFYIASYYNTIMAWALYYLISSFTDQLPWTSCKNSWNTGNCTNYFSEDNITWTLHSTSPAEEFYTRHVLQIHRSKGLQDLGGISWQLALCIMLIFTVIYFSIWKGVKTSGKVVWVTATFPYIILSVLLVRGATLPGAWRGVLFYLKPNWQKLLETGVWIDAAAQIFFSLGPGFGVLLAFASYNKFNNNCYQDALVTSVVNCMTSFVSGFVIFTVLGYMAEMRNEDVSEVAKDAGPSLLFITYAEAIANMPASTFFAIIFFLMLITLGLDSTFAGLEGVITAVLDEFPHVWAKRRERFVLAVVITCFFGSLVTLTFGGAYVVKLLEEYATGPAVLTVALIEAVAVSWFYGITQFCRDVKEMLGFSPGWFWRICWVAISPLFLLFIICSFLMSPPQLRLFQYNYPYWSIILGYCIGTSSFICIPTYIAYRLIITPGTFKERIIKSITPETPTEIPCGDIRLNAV
T1 sequence (P25103 whole entry): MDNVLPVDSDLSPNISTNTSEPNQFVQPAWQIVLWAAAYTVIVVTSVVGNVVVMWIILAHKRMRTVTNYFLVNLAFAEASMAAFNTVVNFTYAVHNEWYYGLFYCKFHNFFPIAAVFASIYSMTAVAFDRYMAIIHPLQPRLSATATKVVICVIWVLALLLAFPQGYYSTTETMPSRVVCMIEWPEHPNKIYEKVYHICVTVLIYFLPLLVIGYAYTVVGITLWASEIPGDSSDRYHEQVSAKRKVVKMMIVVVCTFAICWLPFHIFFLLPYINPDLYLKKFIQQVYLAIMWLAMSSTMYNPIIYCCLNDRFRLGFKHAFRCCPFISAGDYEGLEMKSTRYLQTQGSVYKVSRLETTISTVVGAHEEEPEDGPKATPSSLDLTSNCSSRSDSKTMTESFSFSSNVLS

Compound: FC(F)(F)c1cc(COCC2(c3ccccc3)CCCC(N3CCCC3)C2)cc(C(F)(F)F)c1 (stereo not drawn) [Example 17, 1-(3-((3,5-bis(trifluoromethyl)benzyloxy)methyl)-3-phenylcyclohexyl)pyrrolidine]
- IC50 [1]: 100 to 300 nM

Compound: CCN(CC)C1CCCC(COCc2cc(C(F)(F)F)cc(C(F)(F)F)c2)(c2ccccc2)C1 (stereo not drawn) [Example 13, 3-((3,5-bis(trifluoromethyl)benzyloxy)methyl)-N,N-diethyl-3-phenylcyclohexanamine]
- IC50 [1]: 20 to 100 nM
- IC50 [2]: 100 to 300 nM

Compound: FC(F)(F)c1cc(COCC2(c3ccccc3)CCC(N3CCOCC3)C2)cc(C(F)(F)F)c1 (stereo not drawn) [Example 3, 4-(3-((3,5-bis(trifluoromethyl)benzyloxy)methyl)-3-phenylcyclopentyl)morpholine]
- IC50 [1]: 20 to 100 nM

Compound: FC(F)(F)c1cc(COCC2(c3ccccc3)CCCC(N3CCOCC3)C2)cc(C(F)(F)F)c1 (stereo not drawn) [Example 16, 4-(3-((3,5-bis(trifluoromethyl)benzyloxy)methyl)-3-phenylcyclohexyl)morpholine]
- IC50 [1]: 100 to 300 nM

Compound: FC(F)(F)c1cc(COCC2(c3ccccc3)CCCC(N3CCCCC3)C2)cc(C(F)(F)F)c1 (stereo not drawn) [Example 18, 1-(3-((3,5-bis(trifluoromethyl)benzyloxy)methyl)-3-phenylcyclohexyl)piperidine]
- IC50 [1]: 20 to 100 nM

Compound: FC(F)(F)c1cc(COCC2(c3ccccc3)CCC(NC3CC3)C2)cc(C(F)(F)F)c1 (stereo not drawn) [Example 4, 3-((3,5-Bis(trifluoromethyl)benzyloxy)methyl)-N-cyclopropyl-3-phenylcyclopentanamine]
- IC50 [1]: < 20 nM

Compound: CNC1CCCC(COCc2cc(C(F)(F)F)cc(C(F)(F)F)c2)(c2ccccc2)C1 (stereo not drawn) [Example 11, 3-((3,5-bis(trifluoromethyl)benzyloxy)methyl)-N-methyl-3-phenylcyclohexanamine]
- IC50 [1]: < 20 nM
- IC50 [2]: 100 to 300 nM

Compound: CN(C)C1CCCC(COCc2cc(C(F)(F)F)cc(C(F)(F)F)c2)(c2ccccc2)C1 (stereo not drawn) [Example 12, 3-((3,5-bis(trifluoromethyl)benzyloxy)methyl)-N,N-dimethyl-3-phenylcyclohexanamine]
- IC50 [1]: 100 to 300 nM

Compound: N[C@H]1CC[C@@](COCc2cc(C(F)(F)F)cc(C(F)(F)F)c2)(c2ccccc2)C1 [Example 10, (1S,3S)-3-((3,5-bis(trifluoromethyl)benzyloxy)methyl)-3-phenylcyclopentanamine]
- IC50 [1]: < 20 nM
- IC50 [2]: < 20 nM

Compound: COCCN(C)C1CCC(COCc2cc(C(F)(F)F)cc(C(F)(F)F)c2)(c2ccccc2)C1 (stereo not drawn) [Example 5, 3-((3,5-bis(trifluoromethyl)benzyloxy)methyl)-N-(2-methoxyethyl)-N-methyl-3-phenylcyclopentanamine]
- IC50 [1]: < 20 nM

Compound: FC(F)(F)c1cc(COCC2(c3ccccc3)CCC(N3CCCC3)C2)cc(C(F)(F)F)c1 (stereo not drawn) [Example 2, 1-(3-((3,5-Bis(trifluoromethyl)benzyloxy)methyl)-3-phenylcyclopentyl)pyrrolidine]
- IC50 [1]: < 20 nM

Compound: N[C@@H]1CC[C@@](COCc2cc(C(F)(F)F)cc(C(F)(F)F)c2)(c2ccccc2)C1 [Example 8, (1R,3S)-3-((3,5-bis(trifluoromethyl)benzyloxy)methyl)-3-phenylcyclopentanamine]
- IC50 [1]: < 20 nM
- IC50 [2]: 100 to 300 nM

Compound: N[C@H]1CC[C@](COCc2cc(C(F)(F)F)cc(C(F)(F)F)c2)(c2ccccc2)C1 [Example 7, (1S,3R)-3-((3,5-bis(trifluoromethyl)benzyloxy)methyl)-3-phenylcyclopentanamine]
- IC50 [1]: < 20 nM
- IC50 [2]: 20 to 100 nM

Compound: CCNC1CCCC(COCc2cc(C(F)(F)F)cc(C(F)(F)F)c2)(c2ccccc2)C1 (stereo not drawn) [Example 14, 3-((3,5-bis(trifluoromethyl)benzyloxy)methyl)-N-ethyl-3-phenylcyclohexanamine]
- IC50 [1]: < 20 nM
- IC50 [2]: 100 to 300 nM

Compound: FC(F)(F)c1cc(COCC2(c3ccccc3)CCC(N3CCCCC3)C2)cc(C(F)(F)F)c1 (stereo not drawn) [Example 1, 1-(3-((3,5-Bis(trifluoromethyl)benzyloxy)methyl)-3-phenylcyclopentyl)piperidine]
- IC50 [1]: < 20 nM

Compound: FC(F)(F)c1cc(COCC2(c3ccccc3)CCCC(NC3CC3)C2)cc(C(F)(F)F)c1 (stereo not drawn) [Example 15, 3-((3,5-bis(trifluoromethyl)benzyloxy)methyl)-N-cyclopropyl-3-phenylcyclohexanamine]
- IC50 [1]: 20 to 100 nM

Compound: CN1CCN(C2CCCC(COCc3cc(C(F)(F)F)cc(C(F)(F)F)c3)(c3ccccc3)C2)CC1 (stereo not drawn) [Example 19, 1-(3-((3,5-bis(trifluoromethyl)benzyloxy)methyl)-3-phenylcyclohexyl)-4-methylpiperazine]
- IC50 [1]: 100 to 300 nM

Compound: CN(C)C1CCC(COCc2cc(C(F)(F)F)cc(C(F)(F)F)c2)(c2ccccc2)C1 (stereo not drawn) [Example 6, 3-((3,5-bis(trifluoromethyl)benzyloxy)methyl)-N,N-dimethyl-3-phenylcyclopentanamine]
- IC50 [1]: < 20 nM
- IC50 [2]: 20 to 100 nM

Compound: N[C@@H]1CC[C@](COCc2cc(C(F)(F)F)cc(C(F)(F)F)c2)(c2ccccc2)C1 [Example 9, (1R,3R)-3-((3,5-bis(trifluoromethyl)benzyloxy)methyl)-3-phenylcyclopentanamine]
- IC50 [1]: < 20 nM
- IC50 [2]: 20 to 100 nM
